In assay [1] the test system is P5 DIV3 rat spiral ganglia neurons. In words: Rotenone-induced neurite degeneration (neurite beading/blebbing, NF-200 stain) in spiral ganglia neuron culture. The format is cell-based. The protocol:
Dissociated spiral ganglia neurons were harvested from P5 rats. Briefly, pups were rapidly decapitated, and cochlea were dissected. The modiolus was then dissected and digested (0.1% trypsin, 0.1% collagenase, HBSS−/−) for 45 min at 37° C. Sequential trituration was performed with fire-polished pipets to release cells from the tissue, and cells were transferred to laminin/polylysine-coated 24-well plates. Neurons were incubated overnight in culture media (DMEM high glucose, N2 supplement, 10 μg/ml insulin, 25 μg/ml BDNF, 25 μg/ml NT3). To elicit neurite degeneration, cultures were incubated with rotenone (10 μM) for 2 hr in the presence/absence of 10 mM NAD+.
Spiral ganglia neuron cultures were fixed with 4% paraformaldehyde and permeabilized with 0.5% Triton X-100™/PBS for 10 min. After washing, cells were blocked with 4% donkey serum and incubated with mouse anti-NF200 (1:1000) overnight at 4° C. Neurite beading was then measured using a previously described, unbiased computerized protocol (Sasaki, Y. et al., J. Neuroscience, 29, 5525-5535 (2009)).
Axonal degeneration in a variety of neurons can be blocked by treatment with millimolar concentrations of NAD+ (Avery, M. A., et al., Current Biology, CB 22, 596-600 (2012)). […] This effect was blocked by simultaneous treatment of neurons with 10 mM NAD+. […]

For assay [2], the system named is noise-exposed C57BL6 mice. In words: Auditory brainstem response (ABR) testing of noise-induced hearing loss after 90 dB octave band noise exposure for 2 hr. The format is in vivo. Details: Avg. hearing loss: unit not given here. Conditions: for transient threshold shift: 24 hours after noise exposure. The protocol: Auditory brainstem response testing was performed as previously described (Willott, J. F., Current Protocols in Neuroscience, 8.21B, B1-B12 (2005). Animals were tested following sedation with ketamine and xylazine (40 mg/kg and 10 mg/kg, respectively). Tone burst stimuli at 8, 16, and 32 kHz for 0.5 msec were used to elicit auditory evoked responses using an auditory brainstem recording system (Intelligent Hearing Systems, Miami, Fla.). An evoked response was determined by identifying waveforms at proper time intervals that increased in magnitude with increasing volume as described previously by Willott.
Animals were exposed to a 90 dB octave band for 2 hr in a cage placed in a soundproof chamber (MAC-2, Industrial Acoustics Company, Bronx N.Y.). The mice were able to freely move throughout the cage. The octave band was generated using ToneGen software (NCH software, Greenwood Village, Colo.) routed through an Audiosource Amp100 amplifier driving two down-facing Fostex FT-96H speakers. The sound pressure level was confirmed at 0, 30, 60, and 90 min, and again just prior to completion of sound exposure using an Extech microphone 407736.
To test whether augmented NAD biosynthesis protects from noise-induced hearing loss, auditory brainstem responses (ABR) elicited by tone burst stimuli after acoustic trauma was measured. An ABR occurs when a mouse hears the tone burst stimulus. In these experiments, acoustic trauma was elicited in mice by a 90 dB octave band noise exposure for 120 min. To quantify the degree of hearing loss, “threshold shifts” were measured. These shifts refer to the increased level of sound intensity that is required to elicit an ABR. The threshold for detecting sound stimuli is determined by exposing mice to 0.5 msec tone bursts at a specific frequency and volume. […] Transient threshold shifts (TTS) refer to a temporary hearing loss 24 hours after noise exposure, and permanent threshold shifts (PTS) refer to hearing loss that remains 2 weeks after exposure.
(§1) Nicotinamide riboside (NR) is a well-tolerated precursor of NAD+. In these experiments, NR was administered by intraperitoneal injection twice daily at 1000 mg/kg, a dose which increases tissue NAD levels by 50%, either for 5 days prior to noise exposure and 14 days after noise exposure (NR Before+ After), 5 days prior to noise exposure (NR Before), or 14 days after noise exposure (NR After). […] The hearing loss at 8000 Hz, […], and 32,000 Hz is set forth in the Table and is depicted graphically in FIGS. 4A-4C, respectively.

Assay [3] deals with spiral ganglia neurites / inner hair cells of noise-exposed mice. As to the kind of experiment: Retraction of spiral ganglia neurites from inner hair cells after noise exposure (cochlear immunohistology). The assay is classed as in vivo. Conditions: basal turn of the cochlea, NR before and after acoustic trauma. How it is done:
Mouse cochlea were prepared as described in Whitlon, D. S. et al., Brain Research Protocols, 6, 159-166 (2001). Mouse cochlea were quickly dissected from the temporal bone following rapid decapitation. Once separated, the apex of the cochlea was gently fenestrated, and the cochlea were immediately fixed in 4% paraformaldehyde overnight at 4° C. The cochlea were then washed with three changes of PBS and incubated in a decalcification solution (10% EDTA/PBS pH 7.4) under constant rotation at 4° C. for 1 week. The decalcification solution was changed daily. Cochlea were washed in 3 changes of PBS and then treated with progressively increasing sucrose concentrations from 10-30%. The cochlea were incubated overnight in 30% sucrose at 4° C. The cochlea were incubated an additional 24 hr in OCT compound (Tissue-Tek). […]
Noise-induced hearing loss is associated with retraction of spiral ganglia neurites from the inner hair cells. As the most prominent hearing losses are seen in the portion of the auditory spectrum that contains the highest audible frequencies, the basal turn of the cochlea where this portion of the auditory spectrum is detected was focused on. […] Immunofluorescence labeling of the cochlea can readily show whether spiral ganglia neurites are forming their proper contacts with the base of inner hair cells. […]

A further assay has as its system tissue NAD levels. As to the kind of experiment: Tissue NAD levels after intraperitoneal NR. The assay is classed as in vivo. Conditions: intraperitoneal injection twice daily at 1000 mg/kg. How it is done: as §1

The text below walks through data of patent publication US9861651B2, “Use of nicotinamide riboside to treat hearing loss” (Cornell University, priority 2012, dated 2018).

Turning to `NC(=O)c1ccc[n+]([C@@H]2O[C@H](COP(=O)([O-])OP(=O)(O)OC[C@H]3O[C@@H](n4cnc5c(N)ncnc54)[C@H](O)[C@@H]3O)[C@@H](O)[C@H]2O)c1` [NAD+], in assay [1] (simultaneous treatment with 10 mM NAD+ and 10 μM rotenone, 2 hr), the “effect on rotenone-induced neurite degeneration” value is recorded as “blocked”.
For the compound `NC(=O)c1ccc[n+]([C@@H]2O[C@H](CO)[C@@H](O)[C@H]2O)c1` [NR, Nicotinamide riboside], the transient threshold shift in assay [2] (8000 Hz, NR i.p. twice daily 1000 mg/kg) was determined as 6 dB; in assay [2] (16,000 Hz, NR i.p. twice daily 1000 mg/kg), 8 dB; in assay [2] (32,000 Hz, NR i.p. twice daily 1000 mg/kg) it was 16 dB. Also, the Avg. hearing loss in assay [2] (NR after (i.p. twice daily 1000 mg/kg, 14 days after noise), Baseline, 8 kHz) worked out at 14; in assay [2] (NR after, 1 wk post noise, 8 kHz), 17; in assay [2] (NR after, 1 wk post noise, 32 kHz), 28; in assay [2] (NR after, 2 wks post noise, 8 kHz), 18; in assay [2] (NR after, 2 wks post noise, 16 kHz) it was 15; in assay [2] (NR after, 2 wks post noise, 32 kHz), 28. Further, the Avg. hearing loss in assay [2] (NR after, 24 h post noise, 8 kHz) amounted to 23; in assay [2] (NR after, 24 h post noise, 16 kHz), 23; in assay [2] (NR after, 24 h post noise, 32 kHz) it was 37; in assay [2] (NR after, Baseline, 16 kHz), 19; in assay [2] (NR after, Baseline, 32 kHz), 31; in assay [2] (NR after, Pre-noise, 8 kHz), 14. For the same compound, the Avg. hearing loss is 21 in assay [2] (NR after, Pre-noise, 16 kHz); 16 in assay [2] (NR after, Pre-noise, 32 kHz); 14 in assay [2] (NR before (i.p. twice daily 1000 mg/kg, 5 days prior to noise), Baseline, 8 kHz); 16 in assay [2] (NR before and after (i.p. twice daily 1000 mg/kg, 5 days prior to and 14 days after noise), Baseline, 8 kHz); 15 in assay [2] (NR before and after, 1 wk post noise, 8 kHz); 25 in assay [2] (NR before and after, 1 wk post noise, 16 kHz). For the same compound, the Avg. hearing loss in assay [2] (NR before and after, 1 wk post noise, 32 kHz) turned out to be 40; in assay [2] (NR before and after, 2 wks post noise, 8 kHz), 20; in assay [2] (NR before and after, 2 wks post noise, 16 kHz), 20; in assay [2] (NR before and after, 2 wks post noise, 32 kHz), 20; in assay [2] (NR before and after, 24 h post noise, 8 kHz) it was 22; in assay [2] (NR before and after, 24 h post noise, 16 kHz), 26. The Avg. hearing loss stood at 44 in assay [2] (NR before and after, 24 h post noise, 32 kHz); 13 in assay [2] (NR before and after, Baseline, 16 kHz); 19 in assay [2] (NR before and after, Baseline, 32 kHz); 16 in assay [2] (NR before and after, Pre-noise, 8 kHz); 18 in assay [2] (NR before and after, Pre-noise, 16 kHz); 28 in assay [2] (NR before and after, Pre-noise, 32 kHz). Also, the Avg. hearing loss in assay [2] (NR before, 1 wk post noise, 8 kHz) stood at 15; in assay [2] (NR before, 1 wk post noise, 16 kHz), 23; in assay [2] (NR before, 1 wk post noise, 32 kHz), 23; in assay [2] (NR before, 2 wks post noise, 8 kHz), 18; in assay [2] (NR before, 2 wks post noise, 16 kHz), 18; in assay [2] (NR before, 2 wks post noise, 32 kHz) it was 23. Further, the Avg. hearing loss in assay [2] (NR before, 24 h post noise, 8 kHz) is recorded as 18; in assay [2] (NR before, 24 h post noise, 16 kHz), 25; in assay [2] (NR before, 24 h post noise, 32 kHz), 38; in assay [2] (NR before, Baseline, 16 kHz) it was 16; in assay [2] (NR before, Baseline, 32 kHz) it was 21; in assay [2] (NR before, Pre-noise, 8 kHz) it was 13. Moreover, the Avg. hearing loss in assay [2] (NR before, Pre-noise, 16 kHz) was 18; in assay [2] (NR before, Pre-noise, 32 kHz), 17. For the same compound, the “protection from permanent hearing loss” value in assay [2] (all 3 frequencies (8000, 16,000, 32,000 Hz), NR i.p. twice daily 1000 mg/kg) is “similarly protected”. The “neurite retraction (distance of spiral ganglia neurites from inner hair cells)” value turned out to be 4.3±4.5 μm in assay [3] (24 hr after noise exposure) and 2.5±3.5 μm in assay [3] (14 d after noise exposure). Moreover, the “increase of tissue NAD levels” value with tissue NAD levels was determined as 50%.
As to `C=C(C)[C@H]1Cc2c(ccc3c2O[C@@H]2COc4cc(OC)c(OC)cc4[C@@H]2C3=O)O1` [rotenone], the “neurite degeneration, as measured by the presence of neurite blebbing” value in assay [1] (10 μM rotenone, in as early as 2 hr) was “resulted in neurite degeneration”.
